The source of these data is article PMC6335420, “The cell cycle regulator GpsB functions as cytosolic adaptor for multiple cell wall enzymes” (Nature Communications, 2019).

The target in one assay is T1, BsGpsB1-68Tyr25Phe (Bacillus subtilis, UniProt P0CI74, Y25F).
T1 construct: correspond to BsGpsB1-68^Asp31Ala and BsGpsB1-68^Tyr25Phe mutants, respectively; His6 (N, cleaved yes); made in house; host or cells: E. coli BL21(DE3)
The experiment in a line: Fluorescence polarisation binding to BsGpsB1-68Tyr25Phe. The note with it: FP, BsGpsB Tyr25Phe relative to wild-type BsGpsB1-68. From the text:
(§1) 75 the BsGpsB5-64:BsPBP11-17 complex.

For the next assay, the target named is T2, BsGpsB1-68Asp31Ala (Bacillus subtilis, UniProt P0CI74, D31A).
T2 construct: Glu17Ala, Asp31Ala and Asp35Ala mutations were introduced to the BsGpsB1-68 expression construct plasmid; His6 (N, cleaved yes); made in house; host or cells: E. coli BL21(DE3)
The experiment in a line: Fluorescence polarisation binding to BsGpsB1-68Asp31Ala. The following applies: FP, BsGpsB Asp31Ala relative to wild-type BsGpsB1-68.
Description: as §1

The test system of another assay is LmGpsB. The experiment in a line: BACTH (bacterial two-hybrid) interaction with LmGpsB. The note with it: E. coli BTH101, 30 °C, photographed after 24 and 48 h; LmPBPA1 variants as T25-PBPA1ΔGT-TP. Format: cell-based, Listeria monocytogenes. From the text: The BACTH system[63] was used for analysis of protein:protein interactions. First, LmGpsB was screened against LmPBPA1 (lmo1892) variants to identify residues in LmPBPA1 that are important for binding LmGpsB. To facilitate screening, we used a T25 fragment of Bordetella pertussis adenylate cyclase that had been fused to the N-terminal 91 amino acids of LmPBPA1 to create a T25-LmPBPA1 fusion containing the N-terminal cytoplasmic mini-domain and the transmembrane helix, but lacking lacking the extracellular glycosyltransferase and transpeptidase domains (T25-PBPA1ΔGT-TP) in plasmid pSH437[21]. LmPBPA1 residues that corresponded to the BsGpsB binding motif of BsPBP1 (Thr7, Arg8, Tyr11, Arg12) and additional positively charged amino acids (Lys14, Lys20, Lys21, Lys22, Lys25, Arg26, Lys28 and Arg29) in T25-PBP A1ΔGT-TP were replaced with alanine prior to screening against GpsB-T18. The pSH437 plasmid was mutated by Quikchange mutagenesis using the primer pairs SHW744/SHW754 (T7A, pSH485), SHW746/SHW747 (R8A, pSH486), SHW755/SHW756 (Y11A, pSH487), SHW748/SHW749 (R12A, pSH488), SHW757/SHW758 (K14A, pSH489), SHW759/SHW760 (K20A, pSH490), SHW761/SHW762 (K21A, pSH491), SHW763/SHW764 (K22A, pSH492), SHW765/SHW766 (K25A, pSH493), SHW767/SHW768 (R26A, pSH494), SHW769/SHW770 (K28A, pSH495) and SHW771/SHW772 (R29A, pSH496).
pJR164 and pJR169 were constructed by cloning sepF (primers JR334/JR335 and XbaI/KpnI digestion) into pKT25 and p25-N, respectively. pJR165 and pJR170 were generated by cloning ezrA into pKT25 and p25-N, respectively, using primers JR339/JR340 and XbaI/KpnI for digestion. pJR172 and pJR174 were obtained by cloning zapA into pKT25 and p25-N, respectively, using primers JR337/JR338 and PstI/KpnI. pJR213 was constructed by amplification of divIB with primers JR353/JR354 and cloning into pKT25 using XbaI/KpnI. pJR214 was generated by PCR amplification of divIC with primers JR355/JR356 and cloning into pKT25 using XbaI/KpnI. mreBH was amplified by PCR using oligonucleotides JR368/JR369 and cloned into pKT25 and p25-N using XbaI/KpnI, resulting in pJR233 and pJR236, respectively. pJR242 and pJR243 were obtained by cloning mreC into pKT25 and p25-N, respectively, using primers JR364/JR365 and PstI/KpnI digestion. pbpA2 was cloned into pKT25 using oligonucleotides SHW153/SHW154 and XbaI/KpnI to create pJR250. pbpB1 was amplified with primers SHW157/SHW158 and cloned with SmaI/EcoRI into pKT25, yielding pSH236. pbpB2 was amplified with primers SHW155/SHW156 and cloned into pKT25 after PstI/BamHI digestion, yielding plasmid pSH235. pbpB3 was amplified using primers SHW159/160 and cloned by PstI/BamHI digestion into pKT25, resulting in pSH237. Finally, pSH484 was obtained by removing the N-terminal domain from gpsB present on plasmid pSH226 in a PCR with the primer pair SHW752/SHW753.
Plasmids encoding the respective genes fused to the N- or C-termini of the T18- or the T25-fragment of the Bordetella pertussis adenylate cyclase were co-transformed into E. coli BTH101. Transformants were selected on LB agar plates containing ampicillin (100 µg^−1mL^−1), kanamycin (50 µg^−1mL^−1), X-Gal (40 µg^−1mL^−1) and IPTG (0.1 mM) and photographs were taken after 24 and 48h growth at 30 °C. The BACTH experiments in Fig. 2b and Supplementary Figure 3C, D were repeated at least twice.

For another assay, the target named is T3, BsGpsB1-68Lys32Glu (Bacillus subtilis, UniProt P0CI74, K32E).
T3 construct: His6 (N, cleaved yes); made in house; host or cells: E. coli BL21(DE3)
The experiment in a line: Fluorescence polarisation binding to BsGpsB1-68Lys32Glu. The following applies: FP, relative to wild-type LmPBPA1 peptide.
Description: as §1
(In general: Polarisation of emitted light reports the rotation of a fluorescent probe.)

Assay [1] addresses Fluorescein-LmPBPA11-20 wildtype (L. monocytogenes EGD-e). The experiment in a line: fluorescence polarisation.
In another assay the target is full-length BsPBP1. The experiment in a line: SPR binding to immobilised full-length BsPBP1. The arrangement: species or system Bacillus subtilis. The note with it: SPR, PBP1-coated chip; full-length GpsB data fit 1:1 only over limited concentration range (avidity), BsGpsB1-68 supports 1:1; peer review file; read-out: affinity / Kd by SPR. From the text:
BsPBP1 and BsPBP1_17-914 were immobilised on the surface of a CM5 chip (GE Healthcare). For the BsPBP1/YrrSΔ13-16 titration 800 RUs of BsPBP1 were immobilised on the chip surface; for the BsPBP1/BsGpsB titration 1200 RUs of BsPBP1 were immobilised. YrrSΔ13-16, which lacks residues 13–16 in the cytoplasmic domain, was used in these experiments to minimise non-specific interactions with the chip matrix; binding of YrrSΔ13-16 to the reference surface was negligible and the deletion of residues 13–16 leaves the GpsB-binding motif intact. The YrrSΔ13-16 titration was carried out in single-cycle mode, without regenerating the surface between successive injections of protein, because harsh reagents were necessary for full surface regeneration.
A general note: Surface plasmon resonance follows binding to a sensor surface in real time, without labels.

A further assay concerns the target T4, BsGpsB_(1-68) (B. subtilis, UniProt P0CI74 1-68).
T4 construct: GpsB, Bacillus subtilis, residues 1-68; also called N-terminal domain of BsGpsB; source: E. coli, purified (Ni-NTA, thrombin, size exclusion)
T4 sequence (looked up): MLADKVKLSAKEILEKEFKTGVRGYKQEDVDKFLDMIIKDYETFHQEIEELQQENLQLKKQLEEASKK
The experiment in a line: fluorescence polarisation; GpsB protein titrated into fluorescently labelled peptide; 10 mM Tris.HCl pH 8.0, 250 mM NaCl, 0.1% reduced Triton X-100; fit to a 1:1 interaction model. The note with it: both partners purified.

Non-standard residues stand in square brackets, D forms with d. Residues, ends and D or L forms follow the SMILES beside them. No end group written: not given here. *: point of attachment. Fluorescein(5-Mal) = O=C1OC2(c3ccc(O)cc3Oc3cc(O)ccc32)c2ccc(N3C(=O)CC(*)C3=O)cc21; 5FAM = O=C1OC2(c3ccc(O)cc3Oc3cc(O)ccc32)c2ccc(C(=O)*)cc21; Nle = CCCC[C@H](N)C(=O)O Some results are limits rather than exact numbers.

T3 sequence (P0CI74 1-68 K32E): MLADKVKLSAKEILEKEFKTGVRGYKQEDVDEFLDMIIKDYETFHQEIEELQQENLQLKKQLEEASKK
T1 sequence (P0CI74 1-68 Y25F): as the sequence (P0CI74 1-68 K32E) above, with Y25F, E32K counted along it
T2 sequence (P0CI74 1-68 D31A): as the sequence (P0CI74 1-68 K32E) above, with D31A, E32K counted along it

As for `CSCC[C@H](NC(=O)[C@H](CO)NC(=O)CN)C(=O)NCC(=O)N[C@@H](CC(N)=O)C(=O)N[C@@H](CC(N)=O)C(=O)N[C@@H](CCC(N)=O)C(=O)N[C@@H](CO)C(=O)N[C@@H](CCCNC(=N)N)C(=O)N[C@@H](Cc1ccc(O)cc1)C(=O)N[C@@H](CCC(=O)O)C(=O)N[C@@H](CC(N)=O)C(=O)N[C@@H](CCCNC(=N)N)C(=O)N[C@@H](CC(=O)O)C(=O)N[C@@H](CCCCN)C(=O)N[C@@H](CCCNC(=N)N)C(=O)N[C@@H](CCCNC(=N)N)C(=O)N[C@@H](CCCCN)C(=O)N[C@@H](C)C(=O)N[C@@H](CC(N)=O)C(=O)N[C@@H](CSC1CC(=O)N(c2ccc3c(c2)C(=O)OC32c3ccc(O)cc3Oc3cc(O)ccc32)C1=O)C(=O)NCC(=O)O` (stereo partly drawn) [Fluoroescein-BsYrrS1-18] (H-GSMGNNQSRYENRDKRRKANC(Fluorescein(5-Mal))G-OH; N-terminus and C-terminus assumed), the “reduction in affinity on GpsB mutation” value at BsGpsB1-68Tyr25Phe and at BsGpsB1-68Asp31Ala was 7 fold each time.
For the molecule `CSCC[C@H](NC(=O)[C@H](CO)NC(=O)CN)C(=O)N[C@@H](C)C(=O)N[C@@H](CC(=O)O)C(=O)N[C@@H](CCCCN)C(=O)N1CCC[C@H]1C(=O)N[C@@H](CCC(N)=O)C(=O)N[C@H](C(=O)N[C@@H](C)C(=O)N[C@@H](CO)C(=O)N[C@@H](CCC(N)=O)C(=O)N[C@@H](Cc1ccc(O)cc1)C(=O)N[C@@H](CCCNC(=N)N)C(=O)N[C@@H](CC(N)=O)C(=O)N[C@@H](CCCCN)C(=O)N[C@@H](CCC(N)=O)C(=O)N[C@@H](CO)C(=O)NCC(=O)NCC(=O)N[C@@H](CSC1CC(=O)N(c2ccc3c(c2)C(=O)OC32c3ccc(O)cc3Oc3cc(O)ccc32)C1=O)C(=O)N[C@@H](CCCCN)C(=O)O)[C@@H](C)O` (stereo partly drawn) [Fluorescein-LmPBPA11-20 Arg8Ala] (H-GSMADKPQTASQYRNKQSGGC(Fluorescein(5-Mal))K-OH; N-terminus and C-terminus assumed), the “BACTH interaction with LmGpsB” value in the assay on LmGpsB is “significant negative impact”. Moreover, the “reduction in affinity for BsGpsB1-68Lys32Glu” value on BsGpsB1-68Lys32Glu is recorded as more than 15 fold.
`CSCC[C@H](NC(=O)[C@H](CO)NC(=O)CN)C(=O)N[C@@H](C)C(=O)N[C@@H](CC(=O)O)C(=O)N[C@@H](CCCCN)C(=O)N1CCC[C@H]1C(=O)N[C@@H](CCC(N)=O)C(=O)N[C@H](C(=O)N[C@@H](CCCNC(=N)N)C(=O)N[C@@H](CO)C(=O)N[C@@H](CCC(N)=O)C(=O)N[C@@H](Cc1ccc(O)cc1)C(=O)N[C@@H](C)C(=O)N[C@@H](CC(N)=O)C(=O)N[C@@H](CCCCN)C(=O)N[C@@H](CCC(N)=O)C(=O)N[C@@H](CO)C(=O)NCC(=O)NCC(=O)N[C@@H](CSC1CC(=O)N(c2ccc3c(c2)C(=O)OC32c3ccc(O)cc3Oc3cc(O)ccc32)C1=O)C(=O)N[C@@H](CCCCN)C(=O)O)[C@@H](C)O` (stereo partly drawn) [Fluorescein-LmPBPA11-20 Arg12Ala] (H-GSMADKPQTRSQYANKQSGGC(Fluorescein(5-Mal))K-OH; N-terminus and C-terminus assumed): the “BACTH interaction with LmGpsB” value with LmGpsB is on record as “significant negative impact”. Besides, the “reduction in affinity for BsGpsB1-68Lys32Glu” value on BsGpsB1-68Lys32Glu is given as ~ 4 fold.
For `CCCC[C@H](NC(=O)c1ccc2c(c1)C(=O)OC21c2ccc(O)cc2Oc2cc(O)ccc21)C(=O)N[C@H](C(=O)N[C@@H](CC(N)=O)C(=O)N[C@@H](CCCC)C(=O)N[C@@H](CO)C(=O)N[C@@H](CCCNC(=N)N)C(=O)N[C@H](C(=O)N[C@@H](CCC(=O)O)C(=O)N[C@@H](CCCNC(=N)N)C(=O)N[C@@H](CCCNC(=N)N)C(=O)N[C@@H](CCCCN)C(=O)N[C@@H](C)C(=O)N[C@@H](CCC(N)=O)C(=O)N[C@@H](CC(N)=O)C(=O)N[C@@H](CC(C)C)C(=O)N[C@@H](Cc1ccc(O)cc1)C(=O)N[C@@H](CCC(=O)O)C(=O)N[C@@H](CC(=O)O)C(=O)N[C@@H](CCC(N)=O)C(=O)N[C@@H](CC(N)=O)C(=O)N[C@@H](C)C(=O)O)C(C)C)[C@@H](C)O` [Fluoroescein-BsYpbE1-21] (5FAM-[Nle]TN[Nle]SRVERRKAQNLYEDQNA-OH; N-terminus and C-terminus assumed), the “reduction in affinity on GpsB mutation” value on BsGpsB1-68Tyr25Phe and at BsGpsB1-68Asp31Ala was ~ 40 fold each time.
Molecule “LmGpsB1-73 (from UniProt Q8Y614 1-73) (domain or fragment)” yielded a Kd in assay [1] of 200 µM.

B1: BsGpsB1-68: N-terminal domain of B. subtilis GpsB (protein)
chain: MLADKVKLSAKEILEKEFKTGVRGYKQEDVDKFLDMIIKDYETFHQEIEELQQENLQLKKQLEEASKK
modifications: left off: His6, N-terminal, cleaved
notes: N-terminal domain of B. subtilis GpsB
Consider B1, for which, at full-length BsPBP1, the Kd stood at 40 µM.

B2: BsPBP1_(1-32)^Arg28Ala, TAMRA-labelled at position 16 (peptide, UniProt P39793 1-32, looked up)
peptide: MSDQFNSREARRKANC(TAMRA‑maleimide)KSSPSPKKGKKAKKGG
notes: PBP1, Bacillus subtilis, residues 1-32; source: E. coli, His-tagged MBP fusion purified (Ni-NTA), labelled, TEV-cleaved, ultrafiltration
Take B2: the binding result with BsGpsB_(1-68) is “binds”.

B3: BsYrrS_(1-18), fluorescein-labelled (peptide, UniProt O32031 1-18, looked up)
peptide: MSNNQSRYENRDKRRKAN
modifications: also: fluorescein label, position not given here
notes: YrrS, Bacillus subtilis, residues 1-18; also called entire cytoplasmic mini-domain of BsYrrS
As for B3, the Kd with BsGpsB_(1-68) is 430 µM.
